Source: PubChem BioAssay AID179 (DTP/NCI, 2004)
The source made the active and inactive calls.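 How the source made its calls: active means compounds giving half or more protection of infected cells from virus-caused growth loss, again on retest; inactive means the rest.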 Where a SMILES comes first, the peptide text is derived from it. The star is where a group is joined. Boc = CC(C)(C)OC(=O)*; OBn = c1ccc(CO*)cc1

Test system: CEM cells HIV-1 protection, formazan growth assay
Assay: NCI AIDS Antiviral Assay
Settings: for IC50: measured here: growth of uninfected CEM cells
In short: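 Human CEM cells, uninfected and HIV-1-infected, received five drug concentrations, and growth was read by soluble formazan assay. Compounds giving at least 50% protection were retested; reproducible 100% protection defined confirmed active.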

| SMILES | EC50 [µM] | IC50 [µM] | outcome |
| --- | --- | --- | --- |
| COc1ccc(Cc2c3cc(OC)c(OC)cc3cc[n+]2C)cc1 | > 550 | 107 |  |
| COc1ccc(C2=C(N)c3c(Cl)cccc3C2=O)cc1 | > 200 | 155 |  |
| COc1ccc(C2SCC(=O)N2c2ccc(-c3ccc(-n4c(-c5ccccc5)nc5ccccc5c4=O)cc3)cc2)cc1OC (configuration not stated) | > 200 | 18.2 |  |
| Cc1ccc(-n2c(N)c(C#N)c3[nH]nc(N)c3c2=O)cc1 | > 200 | > 200 |  |
| CC1(C)NNC(=S)NC1=O | > 1580 | > 1580 |  |
| Nc1nc2cc([N+](=O)[O-])cnc2s1 | > 479 | 437 |  |
| O=C(O)c1ccc(Nc2nc3ccc(C(F)(F)F)cc3nc2C(=O)O)cc1 | > 200 | > 200 |  |
| CSC[C@H](NC(=O)COc1cccc2cnccc12)C(=O)NC(Cc1ccccc1)C(O)C(=O)N1CSC[C@H]1C(=O)NC(C)(C)C (some centres not stated) | 0.0513 | 10 |  |
| Nc1nnnn1CCCl | > 200 | > 200 |  |
| N#CCC(=O)N1CCCCCCC1 | > 1380 | > 1380 |  |
| CC(C)(C)NC(=S)N/N=C/c1ccccn1 | > 0.2 | 0.0288 |  |
| O=C(O)C1CC2C3CC(C(=O)O)C(C3)C2C1 (configuration not stated) | > 200 | > 200 |  |
| N=S(=O)(c1ccccc1)c1ccccc1[N+](=O)[O-] (configuration not stated) | 53.7 | 91.2 |  |
| Nc1c(O)c(C(=O)O)cc2ccccc12 | > 200 | 17.8 |  |
| C=CCN(N=O)C(=O)N(CCC)CCCCC(NC(C)=O)C(=O)NCc1ccccc1 (configuration not stated) |  |  | inactive |
| CCCCCCCC[N+](C)(C)Cc1ccc(C[N+](C)(C)CCCCCCCC)cc1 |  |  | inactive |
| COC(=O)[C@]1(C)CCC[C@@]2(C)C1CC[C@@]13C=C(C(C)C)[C@@H](CC1=O)CC23 (some centres not stated) | > 200 | 36.3 |  |
| CNC(=S)N(C)C(=S)Nn1c(=O)c(C)nn(C)c1=S | 18.6 | > 200 |  |
| CN(C)c1ccc(-c2nc(N)nc3c2CCCC3)cc1 | > 37.2 | > 37.2 |  |
| COC(=O)C(=O)C(/C=N/C(=S)N=Nc1c(O)[nH]c2ccccc12)=C(\O)c1c(C)[nH]c2ccccc12 | 26.9 | 105 |  |
| O=C(O)C1CCC(=O)N1S(=O)(=O)c1ccccc1 (configuration not stated) |  |  | inactive |
| O=c1[nH]c2ccccc2nc1/C=C\NC(=S)Nc1cc(Cl)ccc1Cl | > 200 | 112 |  |

| SMILES | EC50 [µM] | IC50 [µM] | outcome |
| --- | --- | --- | --- |
| CCCCCCCNC(=S)N/N=C/c1ccccc1O | > 200 | 10.5 |  |
| COC1=CC2(OC)CCC1C1=C2C(=O)c2c(O)cccc2C1=O (configuration not stated) |  |  | inactive |
| CC(C)C(NC(=O)C(Cc1ccccc1)NC(=O)OC(C)(C)C)C(=O)NCC(=O)OCc1ccccc1 (stereo not drawn) (Boc-Phe-Val-Gly-OBn; configuration not given here) | > 200 | 10.7 |  |
| CCN(CC)CCOC(=O)c1ccc(N=NC2Sc3nc4ccccc4n3C2=O)cc1 (configuration not stated) |  |  | inactive |
| O=C(O)[C@H](NS(=O)(=O)c1ccc([N+](=O)[O-])cc1)c1ccccc1 |  |  | inactive |
| COC(=O)Cc1cc(O)c(C/C=C(\C)CC/C=C(\C)C(O)C(=O)C=C(C)C)cc1O (configuration not stated) | > 15.8 | 9.33 |  |
| COC(=O)[C@@]12CC(C(C)C)[C@H]3CC(C(=O)C=C1OC)[C@H]32 (some centres not stated) |  |  | inactive |
| COc1ccc(C2NC(=S)N3C(c4ccc(OC)c(OC)c4)NC(=S)N23)cc1OC (configuration not stated) | > 200 | > 200 |  |
| CCCCCCCCCCCCCC(=O)OCC1OC(n2cc(C)c(=O)[nH]c2=O)CC1F (configuration not stated) | 0.0437 | 120 |  |
| NC(CSCCSCC(N)C(=O)O)C(=O)O (configuration not stated) | > 10 | > 10 |  |
| C#CC(OC(=O)NC1CCCCC1)(c1ccccc1)c1ccccc1 | > 200 | 20.4 |  |
| C/C(CC(O)(C(F)(F)F)C(F)(F)F)=N\N | > 200 | > 200 |  |
| CC(=O)OC1C(O)C(C)OC(OC2C(OC(=O)C3CCC4C(C3)OC3(CC(OC(=O)/C=C/c5ccccc5)C(C)CO3)C43CO3)OC(C)C(O)C2OC(C)=O)C1O (configuration not stated) | > 1.55 | 0.0012 |  |
| N#CSC#Cc1ccc(C#CSC#N)cc1 | > 200 | 2.4 |  |
| O=C(O)c1cc(O)c2c(c1)C(=O)c1cc(O)cc(O)c1C2=O |  |  | inactive |
| CC1OC1C(=O)C1(O)C(C)C(O)C23OC2(C(O)c2c(O)cccc2C3=O)C1O (configuration not stated) | > 229 | 0.229 |  |
| CCOC(=O)[C@@H]1ON2O[C@@H](OC3CCCCC3c3ccccc3)C[C@H]3OC(=O)[C@@H]1C32 (some centres not stated) | > 200 | > 200 |  |
| CCCCOP(=O)(/C=C/c1ccc([N+](=O)[O-])cc1)OCCCC | > 20.9 | > 20.9 |  |
| COC(=O)[C@@H]1C=C[C@H](NC(C)=O)C1 |  |  | inactive |
| Cc1cc(=O)oc2c(CNC(CC(C)C)C(=O)O)c(O)ccc12 (configuration not stated) | > 200 | > 200 |  |
| C/C(CC(O)(C(F)(F)F)C(F)(F)F)=N/Nc1ccc([N+](=O)[O-])cc1[N+](=O)[O-] | > 200 | 1.41 |  |
| O=C(CSc1nnc(-c2ccc(N=Cc3ccc(Cl)cc3)cc2)o1)Nc1ccccc1Cl | > 269 | > 269 |  |

| SMILES | EC50 [µM] | IC50 [µM] | outcome |
| --- | --- | --- | --- |
| CCOc1ncn(-c2ccc(NC(=S)NC3OC(CO)C(O)C(O)C3O)cc2)n1 (configuration not stated) | > 200 | > 200 |  |
| Cc1cc(NS(=O)(=O)c2ccc(Nc3c4ccccc4nc4c(C(=O)NCCN(C)C)ccc(Cl)c34)cc2)no1 |  |  | inactive |
| CCCCCCCCSC1OC(CO)C(O)C(O)C1O (configuration not stated) |  |  | inactive |
| Cc1ccc(S(=O)(=O)NC(CCC(=O)NN)C(=O)NN)cc1 (configuration not stated) | > 200 | > 200 |  |
| CCOC(=O)c1cn(CC)c(=O)n2c1nc1ccccc12 | > 200 | 117 |  |
| Cc1cc(C)nc(NS(=O)(=O)c2ccc(Nc3c4ccccc4nc4c(C(=O)NCCO)cccc34)cc2)n1 | > 200 | 7.76 |  |
| CC1=N/C(=C\c2ccccc2C)C(=O)O1 | > 1230 | > 1230 |  |
| O=S1(=O)CS(=O)(=O)OCCCCCO1 | > 537 | > 537 |  |
| C/C=C(/C1CC(=O)N2CCc3c([nH]c4ccccc34)C2C1)[Si](C)(C)C (configuration not stated) | > 10.7 | > 10.7 |  |
| Cc1nc2c(N)n[nH]c(=O)n2n1 | > 200 | > 200 |  |
| CC1=C(C(=O)NNC(=O)C(N)=O)CC(C(=O)NNC(=O)C(N)=O)=C(C)N1 | > 200 | > 200 |  |
| CC(C)(CN1CCCCC1)C(=O)/C=C/c1ccccc1 | > 141 | 69.2 |  |
| CC(C)[Si](OC1=CCC[C@H]2NC(=O)[C@@H](Cc3ccccc3)[C@@]12C)(C(C)C)C(C)C | > 200 | 12 |  |
| O=C(O)c1cc(C(=O)Nc2ccc(C3=NCCN3)cc2)c(C(=O)O)cc1C(=O)Nc1ccc(C2=NCCN2)cc1 | > 200 | > 200 |  |
| CC(=O)N1CC2Nc3ccccc3C2CC1CO (configuration not stated) |  |  | inactive |
| O=C(Nc1cccnc1)c1ccccc1[Se][Se]c1ccccc1C(=O)Nc1cccnc1 | 3.24 | 6.92 |  |
| C=C(C)C1CC=C(C)[C@](O)(C2(O)C[C@H](C(=C)C)CC=C2C)C1 (some centres not stated) |  |  | inactive |
| CCC1(O)CCC2C3CC=C4CCCCC4C3CCC21C (configuration not stated) | > 200 | 30.9 |  |
| CC(C)OP(=O)(OC(C)C)C(=NCCO)NNc1ccc([N+](=O)[O-])cc1 | > 339 | 29.5 |  |
| O=c1ccnc2c1ccc1[nH]cccc12 | > 1260 | 64.6 |  |
| CCCCN(CC)C(=O)C(=O)C1C(=O)Nc2ccccc2S1=O (configuration not stated) | > 204 | > 204 |  |
